Test: molar heat capacity at constant pressure; xn = mol fraction of the nth substance listed
Settings: 101 kPa, Liquid, Small sample (50 mg) DSC

C1CCOCC1 [tetrahydropyran] + c1ccccc1
molar heat capacity at constant pressure [J/K/mol]
Settings	298.15 K	303.15 K	308.15 K
x1 = 0.0859	136.89	138.21	139.54
x1 = 0.1279	137.71	139.06	140.44
x1 = 0.1598	138.32	139.7	141.1
x1 = 0.1982	139.05	140.45	141.88
x1 = 0.2254	139.56	140.97	142.43
x1 = 0.2657	140.3	141.72	143.21
x1 = 0.3017	140.94	142.38	143.89
x1 = 0.3509	141.8	143.26	144.8
x1 = 0.3898	142.45	143.93	145.5
x1 = 0.4176	142.91	144.39	145.99
x1 = 0.4428	143.31	144.81	146.42
x1 = 0.4987	144.17	145.7	147.36
x1 = 0.5234	144.54	146.08	147.76
x1 = 0.5592	145.05	146.61	148.32
x1 = 0.5983	145.58	147.17	148.91
x1 = 0.6132	145.78	147.37	149.13
x1 = 0.6478	146.23	147.84	149.63
x1 = 0.6876	146.71	148.35	150.17
x1 = 0.7231	147.12	148.78	150.63
x1 = 0.7623	147.55	149.22	151.1
x1 = 0.7905	147.85	149.53	151.42
x1 = 0.8217	148.15	149.84	151.75
x1 = 0.8507	148.43	150.12	152.04
x1 = 0.9003	148.86	150.54	152.47
